In brackets after ≈: the same amount, converted by molar mass.
Legend:
conscious rats = test: Effect of compounds on mean aortic pressure and heart rate in conscious rats (oral); assay type: in vivo, genetically hypertensive rats; conditions: for Heart Rate / mean aortic pressure / Heart Rate % Change / Aortic Pressure % Change: 50 mg/kg po; for Aortic Pressure % Change: - denotes a decrease in b.p.
Method: The blood pressure of unanesthetized rats and dogs was measured directly by means of a transducer attached to an intra-arterial cannula and in anesthetized dogs by a mercury manometer attached to a carotid cannula.
The compounds of the instant invention were tested as the hydrochloride salts by the above method in genetically hypertensive rats in doses of 50 mg./kg. orally.
Compounds were studied by oral administration in conscious rats for their effects on aortic pressure and cardiac rate.

[1] = as compared to compound 1; Jen et al, J. Med. Chem. 16, 633 (1973); cited from earlier work
[2] = test system: collagen induced platelet aggregation; test: In vitro inhibition of collagen induced platelet aggregation (aggregometer method of Born); assay type: cell-based; conditions: Oryctolagus cuniculus; rabbit platelet rich plasma, 0.05 ml. collagen suspension
Method: (§1) The aggregometer method of Born (1), as modified by Mustard et al (2) was used to assess the in vitro activity of the various compounds as to inhibition of adenosine diphosphate (ADP) and collagen induced platelet aggregation. Platelet rich plasma was separated by centrifugation from citrated (3.8 per cent) rabbit blood. ADP in final concentration of 0.5 mcg./ml. or 0.05 ml. of a collagen suspension prepared according to the method described by Evans et al. (3) was used to induce aggregation. The various compounds tested were dissolved in dimethylsulfoxide (DMSO) so that 5 mcl. added to the platelet rich plasma would yield the desired test concentration. Vehicle control trials were done and compared with aggregation induced in platelet rich plasma containing various concentrations of the test compounds. Dose response curves were obtained and Effective Concentration (EC50) values calculated.
(§2) 1. Born, G.V.R J. Physiol., London, 162, 67P (1962).
(§3) 2. mustard, J. F., Hegardt, B. Rowsell, H. C. and MacMillan, R. L., J. Lab. Clin. Med. 64, 548 (1964).
(§4) 3. Evans, G. Marian, M. C., Packham, M. A., Nishizawa, E. E., Mustard, J. F. and Murphy, E. A., J. Exp. Med., 128, 877 (1968).

[3] = test system: adenosine diphosphate (ADP) induced platelet aggregation; test: In vitro inhibition of ADP induced platelet aggregation (aggregometer method of Born); assay type: cell-based; conditions: Oryctolagus cuniculus; rabbit platelet rich plasma, ADP 0.5 mcg./ml.
Method: as §1, §2, §3, §4

[4] = oral administration, conscious rats

SMILES | Heart Rate (conscious rats; N=3, 0 min (baseline)) [Beats/Min] | mean aortic pressure (conscious rats; N=3, 0 min (baseline)) [mmHg] | Heart Rate (conscious rats; N=3, 30 min) [Beats/Min] | Heart Rate % Change (conscious rats; N=3, 30 min) [%] | mean aortic pressure (conscious rats; N=3, 30 min) [mmHg] | Aortic Pressure % Change (conscious rats; N=3, 30 min) [%] | Heart Rate (conscious rats; N=3, 90 min) [Beats/Min] | Heart Rate % Change (conscious rats; N=3, 90 min) [%] | mean aortic pressure (conscious rats; N=3, 90 min) [mmHg] | Aortic Pressure % Change (conscious rats; N=3, 90 min) [%] | Heart Rate (conscious rats; N=3, 150 min) [Beats/Min] | Heart Rate % Change (conscious rats; N=3, 150 min) [%] | mean aortic pressure (conscious rats; N=3, 150 min) [mmHg] | Aortic Pressure % Change (conscious rats; N=3, 150 min) [%] | Heart Rate (conscious rats; N=3, 300 min) [Beats/Min] | Heart Rate % Change (conscious rats; N=3, 300 min) [%] | EC50 [2] [µg/mL] | EC50 [3] [µg/mL] | other results
O=C1CC2Cc3ccccc3N=C2N1 (centres unmarked) [BL-4369] | 350±25 | 114±2 | 420±19 | 21±9 | 91±6 | -20±6 | 414±26 | 19±9 | 110±3 | -3±4 | 370±31 | 6±8 | 101±3 | -11±2 | 382±25 | 10±7 |  |  | mean aortic pressure (conscious rats; N=3, 300 min): 109±8 mmHg
Cc1cccc2c1CC1CC(=O)NC1=N2 (centres unmarked) [BL-4412] | 352±21 | 126±2 | 464±24 | 34±15 | 86±1 | -32 | 432±12 | 24±10 | 86±2 | -31.2 | 422±12 | 21±11 | 89±4 | -29 | 422±19 | 1±12 |  |  | Aortic Pressure % Change (conscious rats; N=3, 300 min): -25%; effect on aortic pressure (in words) (conscious rats; [4]): appreciable fall in aortic pressure; effect on heart rate (in words) (conscious rats; [4]): not out of proportion to the fall in aortic pressure
c1ccc2c(c1)CC1CCNC1=N2 (centres unmarked) [compound 2] |  |  |  |  |  |  |  |  |  |  |  |  |  |  |  |  |  |  | antihypertensive activity (in words) [1]: low degree of antihypertensive activity
Cc1cccc2c1CC1CC(=O)NC1=N2 (centres unmarked) [drawing 4] |  |  |  |  |  |  |  |  |  |  |  |  |  |  |  |  | 0.3 (≈ 1.5 µM) | 1.5 (≈ 7.49 µM) | 
O=C1CC2Cc3ccccc3N=C2N1 (centres unmarked) [drawing 3] |  |  |  |  |  |  |  |  |  |  |  |  |  |  |  |  | 27 (≈ 145 µM) | 22 (≈ 118 µM) | 

From patent US3974165A, “Hypotensive agents” (Bristol-Myers Company, priority 1974, dated 1976)
